Data as given in PubChem BioAssay (NCI).
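Grown in 96-well plates, cells were treated for 48 hours with each compound at five concentrations. Insufficient inhibition: endpoint recorded as highest concentration tested. GI50 = concentration required for 50% inhibition of growth. TGI: concentration producing complete growth inhibition.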

Legend:
Assay in all cases: NCI anticancer screen, dose series, 48 h
RXF 393 renal = tested on: RXF 393 renal
HCT-15 colon = tested on: HCT-15 colon
SF-539 CNS = tested on: SF-539 CNS
UACC-62 melanoma = tested on: UACC-62 melanoma
NCI-H522 lung = tested on: NCI-H522 lung
SK-OV-3 ovarian = tested on: SK-OV-3 ovarian
SR leukemia = tested on: SR leukemia
CAKI-1 renal = tested on: CAKI-1 renal

Row | Compound | GI50 (RXF 393 renal) [µM] | TGI (RXF 393 renal) [µM] | GI50 (HCT-15 colon) [µM] | TGI (HCT-15 colon) [µM] | GI50 (SF-539 CNS) [µM] | TGI (SF-539 CNS) [µM] | GI50 (UACC-62 melanoma) [µM] | TGI (UACC-62 melanoma) [µM] | GI50 (NCI-H522 lung) [µM] | TGI (NCI-H522 lung) [µM] | GI50 (SK-OV-3 ovarian) [µM] | TGI (SK-OV-3 ovarian) [µM] | GI50 (SR leukemia) [µM] | TGI (SR leukemia) [µM] | GI50 (CAKI-1 renal) [µM] | TGI (CAKI-1 renal) [µM]
1 | CCOC(=O)c1cc2c(n1Cc1cccc(OC)c1)-c1oncc1CC2 | 1.72 | 35.9 | 0.521 | > 100 | 1.16 | 7.35 | 0.541 | > 100 | 0.237 | 1.42 | 2.42 | > 100 |  |  |  | 
2 | CCN(CC)CCn1c(=N)n(CC(O)c2ccc(Cl)c(Cl)c2)c2ccccc21 (stereo unspecified) | 2.8 | 10.9 | 4.02 | 15.1 | 2.86 | 10.1 | 1.94 | 3.89 |  |  | 11.9 | 24.1 | 2.12 | 5.56 | 11.8 | 25.1
3 | Cc1cc2c(-c3nc4ccccc4[nH]3)c(O)c(O)cc2c(O)c1-c1c(C)cc2c(-c3nc4ccccc4[nH]3)c(O)c(O)cc2c1O | 0.0434 | 3.56 | 0.0156 | 19.8 | 0.0344 | 0.494 |  |  | 0.0449 | 0.878 | 0.045 | 0.283 | 0.035 | > 50 | 0.0496 | 0.628
4 | N#Cc1c(N)nn(C(=O)c2ccc(NC(=O)c3ccccn3)cc2)c1-c1ccc(Cl)cc1 | 3.11 | 24.5 | 5.04 | > 100 | 3.21 | 12.5 | 9.45 | > 100 | 4.52 | > 100 | 5.23 | 34.9 | 3.81 | > 100 | 2.06 | 6.3
5 | N/C(=N\N=C\c1ccc2c(c1)OCO2)NO |  | > 100 |  | > 100 |  | 56.5 |  | 49.2 |  | > 100 |  | > 100 |  | 31.7 |  | > 100
6 | COc1ccc(CCNc2nc3ccccc3c3[nH]c4ccccc4c23)cc1OC | 1.47 | 3.15 | 2.86 | 10.4 | 2.17 | 4.06 | 13 | 26.6 |  |  | 19.9 | 34.6 | 2.32 | 7.93 | 11.4 | 24.8
7 | CC1(CCCC2(C)CCNC2=O)OCCO1 (stereo unspecified) |  | > 10 |  | > 10 |  | > 10 |  | > 10 |  |  |  | > 10 |  | > 10 |  | > 10
8 | O=C(Nc1ccc(Cl)c(Cl)c1)Nc1ccc(Cl)c([N+](=O)[O-])c1 | 2.95 | 9.29 | 0.845 | 3.56 | 2.17 | 5.51 | 1.13 | 4.15 | 0.996 | 4.9 | 2.01 | 5.89 | 2.58 | > 25 |  | 
9 | CCOC(=O)c1cnc2ccc(Cl)cc2c1NCCCN(C)C |  |  | 25.2 | > 100 | 17.4 | 41.5 | 16.4 | 32.8 | 16.2 | 39.4 | 34.9 | > 100 | 6.42 | 70.4 | 23.8 | 96.5
10 | NC(=O)C/C=C/CC(N)=O |  | > 100 |  | > 100 |  | > 100 |  | > 100 |  | > 100 |  | > 100 |  |  |  | > 100
11 | COc1ccc([C@H]2c3cc(OC)c(OC)cc3C=C(C=O)C2CO)cc1OC (stereo partly specified) | 3.27 | > 100 | 5.03 | > 100 | 3.33 | > 100 | 4.32 | > 100 |  |  | 4.23 | > 100 | 4.95 | > 100 | 3.02 | > 100
12 | Cn1cc(-c2ccc3cc(-c4ccc(CC(=O)Nc5cc(C(C)(C)C)nn5C)cc4)cnc3c2)cn1 |  |  | 0.157 | > 100 | 0.112 | 12.4 | 0.179 | > 100 | 0.251 | > 100 | 0.109 | > 100 | 0.256 | > 100 | 0.0519 | > 100
13 | CC(=O)NC1(C)CCC(C(C)(C)NC(C)=O)CC1 (stereo unspecified) |  | > 100 |  | > 100 |  | > 100 |  | > 100 |  |  |  | > 100 |  | > 100 |  | > 100
14 | Cc1c2c(n3c(nc4ccccc43)c1C#N)SCC2 |  |  |  | > 10 |  | > 10 |  | > 10 |  |  |  | > 10 |  | > 10 |  | > 10
15 | O=C1CCCC1C(=O)Nc1ccc2ccccc2c1 (stereo unspecified) |  | > 100 |  | > 100 |  |  |  | > 100 |  | > 100 |  | > 100 |  | > 100 |  | > 100
16 | C=C1C(=O)O[C@@H]2[C@@H]3O[C@@](C)(CC/C=C(\C)CCC[C@@H]2C)[C@H](O)C[C@@H]13 | 1.79 | 3.58 | 1.64 | 4.53 | 2.7 | 8.9 | 2.05 | 5.11 | 2.11 | 4.5 | 13.1 | 25.8 |  |  | 1.73 | 4.5
17 | CC(C)Oc1cc(OCC(=O)O)cc(C(=O)N(CCC(N)=O)C(=O)Nc2ccc(C(=O)O)cc2OC(C)C)c1 | > 100 | > 100 | > 100 | > 100 | > 100 | > 100 | > 100 | > 100 | > 100 | > 100 | > 100 | > 100 | > 100 | > 100 |  | 
18 | C1=C[C@@H]2c3ccc4cnccc4c3NC[C@@H]2C1 |  | > 100 |  | > 100 |  | > 100 |  | > 100 |  |  |  | > 100 |  | > 100 |  | 
19 | CCCCc1ccc2nc(NC(=O)OC)[nH]c2c1 | 0.0929 | 20.1 | 0.0434 | > 95.2 | 0.0366 | 0.294 | 0.0451 | > 59.1 | 0.0612 | > 68.3 | 0.0534 | > 47.1 |  |  | 0.0314 | 12.9
